Reference: patent US4178442A, “Novel cinnamoyles piperazines and homopiperazines, the method of preparing them and their application in therapeutics” (Delalande S. A., priority 1977, dated 1979)
Like-named read-outs stand apart in the source and are kept apart here.

Experiments:
anaesthetized dog = assay: Antiangorous activity on anaesthetized dog: consumption of oxygen in the left ventricule and cardiac effort (KATZ's index); assay type: in vivo; conditions: for inhibition in vivo at 2.5 mg/kg / inhibition in vivo at 2.2 mg/kg / inhibition in vivo at 4.5 mg/kg / inhibition in vivo at 2.1 mg/kg / inhibition in vivo at 2.3 mg/kg / inhibition in vivo at 4.6 mg/kg / inhibition in vivo at 0.625 mg/kg / inhibition in vivo at 10 mg/kg: Canis lupus familiaris, iv
Protocol: The antiangorous activity was tested on an anaesthetized dog (sodium pentobarbital 30 mg/kg/i.v.).
The consumption of oxygen in the left ventricule was estimated by the product of the coronary venous flow and the coronary arteriovenous difference in oxygen (% volume).
The coronary venous flow was measured at the coronary venous sinus by means of a modified Morawitz cannula, introduced under radioscopic control.
The cardiac effort was estimated according to KATZ's index, by the product of the average arterial pressure and the cardiac frequency.
The cardiac frequency was estimated from the electrocardiogram recorded with D2 derivation.
It should be noted that the compounds tested were injected intravenously with slow perfusion.

in vivo = conditions: iv; for LD50: read-out: Toxicity: LD50
Excerpt: *LD50 or percentage of mortality which is given between brackets

[1] = 2.5 mg/kg i.v. slow perfusion, read-out: Diminution in consumption of O2
[2] = 2.5 mg/kg i.v. slow perfusion, read-out: Diminution in the cardiac effort (IK)
[3] = 2.3 mg/kg i.v. slow perfusion, read-out: Diminution in consumption of O2
[4] = 2.3 mg/kg i.v. slow perfusion, read-out: Diminution in the cardiac effort (IK)
[5] = 0.625 mg/kg i.v. slow perfusion

For CCOC(=O)c1ccc(OCC(O)CN2CCN(C(=O)/C=C/c3cc(OC)c(OC)c(OC)c3)CC2)cc1 (centres unmarked) [760 382], the “Diminution in consumption of O2: in time” value (anaesthetized dog; 2.5 mg/kg i.v. slow perfusion) was 30 min, the “Diminution in the cardiac effort (IK): in time” value (from here on “Diminution in the cardiac effort”) (anaesthetized dog; 2.5 mg/kg i.v. slow perfusion) was 30 min and the inhibition in vivo at 2.5 mg/kg (anaesthetized dog; [1]) was 40%. The inhibition in vivo at 2.5 mg/kg (anaesthetized dog; [2]) was 24% and the LD50 (in vivo) was 260 mg/kg.
With COc1cc(/C=C/C(=O)N2CCN(CC(O)COc3ccc(C(C)=O)cc3)CC2)cc(OC)c1OC (centres unmarked) [760 385] the “Diminution in consumption of O2: in time” value (anaesthetized dog; 2.2 mg/kg i.v. slow perfusion) was 15 min, the “Diminution in the cardiac effort” value (anaesthetized dog; 2.2 mg/kg i.v. slow perfusion) was 15 min and the inhibition in vivo at 2.2 mg/kg (anaesthetized dog; 2.2 mg/kg i.v. slow perfusion, read-out: Diminution in consumption of O2) was 65%. For the same molecule, the inhibition in vivo at 2.2 mg/kg (anaesthetized dog; 2.2 mg/kg i.v. slow perfusion, read-out: Diminution in the cardiac effort (IK)) was 16% and the mortality (in vivo; 351 mg/kg i.v., read-out: Toxicity (Mortality)) was 10%.
With COc1cc(/C=C/C(=O)N2CCN(CC(O)COc3ccccc3C#N)CC2)cc(OC)c1OC (centres unmarked) [760 389] the “Diminution in consumption of O2: in time” value (anaesthetized dog; 4.5 mg/kg i.v. slow perfusion) was 60 min, the “Diminution in the cardiac effort” value (anaesthetized dog; 4.5 mg/kg i.v. slow perfusion) was 60 min and the inhibition in vivo at 4.5 mg/kg (anaesthetized dog; 4.5 mg/kg i.v. slow perfusion, read-out: Diminution in consumption of O2) was 70%. The inhibition in vivo at 4.5 mg/kg (anaesthetized dog; 4.5 mg/kg i.v. slow perfusion, read-out: Diminution in the cardiac effort (IK)) was 55% and the LD50 (in vivo) was 245 mg/kg.
With COc1cc(/C=C/C(=O)N2CCN(CC(O)COc3ccc(C(C)=O)c4c3OCCO4)CC2)cc(OC)c1OC (centres unmarked) [760 394] the “Diminution in consumption of O2: in time” value (anaesthetized dog; 2.1 mg/kg i.v. slow perfusion) was 60 min, the “Diminution in the cardiac effort” value (anaesthetized dog; 2.1 mg/kg i.v. slow perfusion) was 45 min and the inhibition in vivo at 2.1 mg/kg (anaesthetized dog; 2.1 mg/kg i.v. slow perfusion, read-out: Diminution in consumption of O2) was 60%. The inhibition in vivo at 2.1 mg/kg (anaesthetized dog; 2.1 mg/kg i.v. slow perfusion, read-out: Diminution in the cardiac effort (IK)) was 46% and the LD50 (in vivo) was 214 mg/kg.
With COc1cc(/C=C/C(=O)N2CCN(CC(O)COc3ccc(Cl)cc3)CC2)cc(OC)c1OC (centres unmarked) [760 476] the “Diminution in consumption of O2: in time” value (anaesthetized dog; 2.3 mg/kg i.v. slow perfusion) was 23 min, the “Diminution in the cardiac effort” value (anaesthetized dog; 2.3 mg/kg i.v. slow perfusion) was 15 min and the inhibition in vivo at 2.3 mg/kg (anaesthetized dog; [3]) was 70%. The inhibition in vivo at 2.3 mg/kg (anaesthetized dog; [4]) was 5% and the LD50 (in vivo) was 185 mg/kg.
In the case of COc1cc(/C=C/C(=O)N2CCN(CC(O)COc3cc(OC)c(OC)c(OC)c3)CC2)cc(OC)c1OC (centres unmarked) [760 506], the “Diminution in consumption of O2: in time” value (anaesthetized dog; 2.3 mg/kg i.v. slow perfusion) is reported as 60 min, the “Diminution in the cardiac effort” value (anaesthetized dog; 2.3 mg/kg i.v. slow perfusion) is reported as 60 min and the inhibition in vivo at 2.3 mg/kg (anaesthetized dog; [3]) is reported as 67%. The inhibition in vivo at 2.3 mg/kg (anaesthetized dog; [4]) was 26% and the LD50 (in vivo) was 182 mg/kg.
In the case of COc1cc(/C=C/C(=O)N2CCN(CC(O)COc3ccc(SC)cc3)CC2)cc(OC)c1OC (centres unmarked) [760 507], the “Diminution in consumption of O2: in time” value (anaesthetized dog; 4.6 mg/kg i.v. slow perfusion) is reported as 60 min, the “Diminution in the cardiac effort” value (anaesthetized dog; 4.6 mg/kg i.v. slow perfusion) is reported as 30 min and the inhibition in vivo at 4.6 mg/kg (anaesthetized dog; 4.6 mg/kg i.v. slow perfusion, read-out: Diminution in consumption of O2) is reported as 68%. It also gave an inhibition in vivo at 4.6 mg/kg (anaesthetized dog; 4.6 mg/kg i.v. slow perfusion, read-out: Diminution in the cardiac effort (IK)) of 32% and an LD50 (in vivo) of 185 mg/kg.
For COc1cc(/C=C/C(=O)N2CCN(CC(O)COc3cccc4c3OCCO4)CC2)cc(OC)c1OC (centres unmarked) [760 519], the “Diminution in consumption of O2: in time” value (anaesthetized dog; 2.5 mg/kg i.v. slow perfusion) was 15 min, the “Diminution in the cardiac effort” value (anaesthetized dog; 2.5 mg/kg i.v. slow perfusion) was 15 min and the inhibition in vivo at 2.5 mg/kg (anaesthetized dog; [1]) was 51%. The inhibition in vivo at 2.5 mg/kg (anaesthetized dog; [2]) was 11% and the LD50 (in vivo) was 218 mg/kg.
For COc1cc(/C=C/C(=O)N2CCN(CC(O)COc3ccccc3Cl)CC2)cc(OC)c1OC (centres unmarked) [760 520], the “Diminution in consumption of O2: in time” value (anaesthetized dog; 2.3 mg/kg i.v. slow perfusion) was 40 min, the “Diminution in the cardiac effort” value (anaesthetized dog; 2.3 mg/kg i.v. slow perfusion) was 30 min and the inhibition in vivo at 2.3 mg/kg (anaesthetized dog; [3]) was 45%. For the same molecule, the inhibition in vivo at 2.3 mg/kg (anaesthetized dog; [4]) was 13% and the LD50 (in vivo) was 157 mg/kg.
COc1cc(/C=C/C(=O)N2CCN(CC(O)COc3ccc(CC#N)c4c3OCCO4)CC2)cc(OC)c1OC (centres unmarked) [770 188] gave an LD50 (in vivo) of 219 mg/kg.
In the case of COc1cc(/C=C/C(=O)N2CCN(CC(O)CSc3cccc4c3OCCO4)CC2)cc(OC)c1OC (centres unmarked) [780 389], the “Diminution in consumption of O2: in time” value (anaesthetized dog; 2.5 mg/kg i.v. slow perfusion) is reported as 15 min, the “Diminution in the cardiac effort” value (anaesthetized dog; 2.5 mg/kg i.v. slow perfusion) is reported as 30 min and the inhibition in vivo at 2.5 mg/kg (anaesthetized dog; [1]) is reported as 32%. For the same molecule, the inhibition in vivo at 2.5 mg/kg (anaesthetized dog; [2]) was 15%.
In the case of COc1cc(/C=C/C(=O)N2CCN(CC(O)COc3ccc(C(C)=O)cc3Cl)CC2)cc(OC)c1OC (centres unmarked) [780 401], the “Diminution in consumption of O2: in time” value (anaesthetized dog; 2.5 mg/kg i.v. slow perfusion) is reported as 30 min, the inhibition in vivo at 2.5 mg/kg (anaesthetized dog; [1]) is reported as 64% and the inhibition in vivo at 2.5 mg/kg (anaesthetized dog; [2]) is reported as 6%.
With COc1cc(/C=C/C(=O)N2CCN(CC(O)COc3ccc(C(C)=O)cc3OC)CC2)cc(OC)c1 (centres unmarked) [780 404] the “Diminution in consumption of O2: in time” value (anaesthetized dog; 2.5 mg/kg i.v. slow perfusion) was 15 min, the “Diminution in the cardiac effort” value (anaesthetized dog; 2.5 mg/kg i.v. slow perfusion) was 30 min and the inhibition in vivo at 2.5 mg/kg (anaesthetized dog; [1]) was 69%. For the same molecule, the inhibition in vivo at 2.5 mg/kg (anaesthetized dog; [2]) was 44%.
In the case of CNC(=O)Nc1ccc(OCC(O)CN2CCN(C(=O)/C=C/c3cc(OC)c(OC)c(OC)c3)CC2)c2c1OCCCO2 (centres unmarked) [780 456], the “Diminution in consumption of O2: in time” value (anaesthetized dog; [5]) is reported as 15 min, the “Diminution in the cardiac effort” value (anaesthetized dog; [5]) is reported as 30 min and the inhibition in vivo at 0.625 mg/kg (anaesthetized dog; 0.625 mg/kg i.v. slow perfusion, read-out: Diminution in consumption of O2) is reported as 13%. It also gave an inhibition in vivo at 0.625 mg/kg (anaesthetized dog; 0.625 mg/kg i.v. slow perfusion, read-out: Diminution in the cardiac effort (IK)) of 32%.
In the case of CCCCc1oc2ccccc2c1C(=O)c1cc(I)c(OCCN(CC)CC)c(I)c1 [AMIODARONE, reference compound], the “Diminution in consumption of O2: in time” value (anaesthetized dog; 10 mg/kg i.v. slow perfusion) is reported as 15 min, the “Diminution in the cardiac effort” value (anaesthetized dog; 10 mg/kg i.v. slow perfusion) is reported as 15 min and the inhibition in vivo at 10 mg/kg (anaesthetized dog; 10 mg/kg i.v. slow perfusion, read-out: Diminution in consumption of O2) is reported as 11%. It also gave an inhibition in vivo at 10 mg/kg (anaesthetized dog; 10 mg/kg i.v. slow perfusion, read-out: Diminution in the cardiac effort (IK)) of 22%.
